Assay results reported in patent US8834843B2, “Imaging method” (GE Healthcare Limited, priority 2007, dated 2014).
Where two headings read alike, the source gives them in different places. Numbered stars: 1 amine (or outer) side, 2 acyl side, 3 side chain; on linkers, the order of the positions; unused ones are H or OH. Bridge positions count the residues as written; N and C are the ends. Side chains are listed from the residue outwards. Peptide text beside a SMILES is read from it. * marks the point of attachment. X1 = C/C(=N\O)C(C)(C)NCCC(CCNC(C)(C)/C(C)=N/O)CCN*; Glutaryl = O=C(CCCC(=O)[*:2])[*:1]; X2 = NC(=O)COCC(=O)NCCOCCOCCOCCN*

Experiments:
[1] = Biodistribution in sham-operated rats with and without excess cold compound; format: in vivo; settings: male, Sprague Dawley, rat, iv, total radioactivity, 15 days post-op, 1 hour post-injection; for dose excreted at 1 h: bile and urine
Protocol: On the appropriate day post surgery BDL and sham animals were removed and put under isoflurane anaesthesia, then each animal was injected with 0.3 ml intravenously (i.v.) via tail vein (˜3MBq). At the appropriate time point post-injection of the test item, each animal was re-anaesthetised with isoflurane, sacrificed by cervical dislocation weighed and the weight recorded via a barcode scanning system. Each animal was dissected and the following organs and tissues were removed and counted using BASIL counter protocol 40 or manual counting:
The recorded activity in a whole organ (e.g., liver) was corrected for background radioactivity and for radioactive decay and the biodistribution of radioactivity calculated by reference to Formula I:
[formula] where: • A=counts per second measured in organ • B=total counts per second measured in all samples (excluding the injection site)
The percentage of injected radioactivity in the weighed tissue samples (e.g., blood) was calculated to give % i.d. in the entire tissue by reference to Formula 2:
[formula] where: • Zs=counts per second in sample • Ws=weight of sample in grams • Wb=weight of animal in grams immediately after sacrifice • B=total counts per second measured in all the samples (excluding the injection site) • F=tissue specific factor representing the mass of the tissue as a proportion of the total body weight of the animal
The biodistribution of radioactivity was investigated in 15 days post-operatively in BDL and sham-operated male Sprague Dawley rats (procedures described in Example 3) 1 hour following of intravenous injection via tail vein of ˜3 MBq of Compound 8, both before and after addition of 1:100 and 1:10,000 fold excess of cold Compound 8. At the appropriate time point post-injection of the test Item, each animal was re-anaesthetised with isoflurane, sacrificed by cervical dislocation and weighed. Each animal was dissected and organs and tissues (see Tables 5 and 6 below) were removed and counted using BASIL counter protocol 40 or manual counting.

[2] = tested on: fibrogenic livers in rat BDL model; assay: Liver uptake (SUV) in BDL vs sham rats at 2-28 days post-operatively; format: in vivo; settings: 1 hour after tail vein injection
Protocol: Outbred male Sprague Dawley rats (180-200 g; Charles River) were used in all bile duct ligation (BDL) and sham studies. […] For the BDL animals, the abdomen was shaved and swabbed with betadine solution followed by 5 mg/kg carprofen subcutaneously (s.c.) and 5 mg/kg bupronorphine s.c. and under Isoflurane anaesthesia a mid-line laparotomy was performed and the common bile duct located. Bile duct was double ligated, the first ligation made between the junction of the hepatic ducts and the second above the entrance of the pancreatic ducts. […] Animals were closely monitored for the duration of the experiment. […] At the appropriate time point post-injection of the test item, each animal was re-anaesthetised with isoflurane, sacrificed by cervical dislocation weighed and the weight recorded via a barcode scanning system. Each animal was dissected and the following organs and tissues were removed and counted using BASIL counter protocol 40 or manual counting: The BDL and sham animal models were set up as described in Example 3. Uptake of Compound 8 was calculated as Standard Uptake Value (SUV) as follows: [formula] • Zs=counts per second in sample • Ws=weight of sample in grams • Z1=total counts per second measured in all the samples (excluding the injection site) • W1=weight of animal in grams […]

## C/C(=N\O)C(C)(C)NCCC(CCNC(=O)CCCC(=O)NCCCC[C@@H]1NC(=O)CSC[C@@H](C(=O)NCCOCCOCCOCCNC(=O)COCC(N)=O)NC(=O)[C@H](Cc2ccccc2)NC(=O)[C@@H]2CSSC[C@H](NC1=O)C(=O)N[C@@H](CCCNC(=N)N)C(=O)NCC(=O)N[C@@H](CC(=O)O)C(=O)N2)CCNC(C)(C)/C(C)=N/O (stereo partly shown) [Compound 8] ({CH2CO}-K([Glutaryl-X1])CRGDCFC-X2; disulfide 2-6; thioether N-8)
[1]; +10K-fold excess cold Compound 8
  dose excreted at 1 h: 46.5%
[1]; +100-fold excess cold Compound 8
  dose excreted at 1 h: 43.2%
[1]; no excess
  dose excreted at 1 h: 44.6%
[1]; blood, +10K-fold excess cold Compound 8, read-out: Activity in Blood, Mean
  tissue uptake dose at 1 h: 1.4 %ID
[1]; blood, +100-fold excess cold Compound 8, read-out: Activity in Blood, Mean
  tissue uptake dose at 1 h: 1.37 %ID
[1]; blood, no excess, read-out: Activity in Blood, Mean
  tissue uptake dose at 1 h: 1.55 %ID
[1]; bone, 3 MBq, +10K-fold excess cold Compound 8, read-out: Activity in Bone, Mean
  tissue uptake dose at 1 h: 2.42 %ID
[1]; bone, 3 MBq, +100-fold excess cold Compound 8, read-out: Activity in Bone, Mean
  tissue uptake dose at 1 h: 3.06 %ID
[1]; bone, 3 MBq, no excess, read-out: Activity in Bone, Mean
  tissue uptake dose at 1 h: 3.1 %ID
[1]; carcass, 3 MBq, +10K-fold excess cold Compound 8, read-out: Activity in Carcass, Mean
  tissue uptake dose at 1 h: 11.6 %ID
[1]; carcass, 3 MBq, +100-fold excess cold Compound 8, read-out: Activity in Carcass, Mean
  tissue uptake dose at 1 h: 9.32 %ID
[1]; carcass, 3 MBq, no excess, read-out: Activity in Carcass, Mean
  tissue uptake dose at 1 h: 8.45 %ID
[1]; heart, 3 MBq, +10K-fold excess cold Compound 8, read-out: Activity in Heart, Mean
  tissue uptake dose at 1 h: 0.1 %ID
[1]; heart, 3 MBq, +100-fold excess cold Compound 8, read-out: Activity in Heart, Mean
  tissue uptake dose at 1 h: 0.1 %ID
[1]; heart, 3 MBq, no excess, read-out: Activity in Heart, Mean
  tissue uptake dose at 1 h: 0.12 %ID
[1]; injection site, 3 MBq, +10K-fold excess cold Compound 8, read-out: Activity in Injection Site, Mean
  tissue uptake dose at 1 h: 1.71 %ID
[1]; injection site, 3 MBq, +100-fold excess cold Compound 8, read-out: Activity in Injection Site, Mean
  tissue uptake dose at 1 h: 1.44 %ID
[1]; injection site, 3 MBq, no excess, read-out: Activity in Injection Site, Mean
  tissue uptake dose at 1 h: 1.66 %ID
[1]; kidneys, +10K-fold excess cold Compound 8, read-out: Activity in Kidneys, Mean
  tissue uptake dose at 1 h: 3.65 %ID
[1]; kidneys, +100-fold excess cold Compound 8, read-out: Activity in Kidneys, Mean
  tissue uptake dose at 1 h: 4.13 %ID
[1]; kidneys, no excess, read-out: Activity in Kidneys, Mean
  tissue uptake dose at 1 h: 4.07 %ID
[1]; liver, 3 MBq, +10K-fold excess cold Compound 8, read-out: Activity in Liver, Mean
  tissue uptake dose at 1 h: 3.03 %ID
[1]; liver, 3 MBq, +100-fold excess cold Compound 8, read-out: Activity in Liver, Mean
  tissue uptake dose at 1 h: 3.52 %ID
[1]; liver, 3 MBq, no excess, read-out: Activity in Liver, Mean
  tissue uptake dose at 1 h: 3.71 %ID
[1]; lung, 3 MBq, +10K-fold excess cold Compound 8, read-out: Activity in Lung, Mean
  tissue uptake dose at 1 h: 0.39 %ID
[1]; lung, 3 MBq, +100-fold excess cold Compound 8, read-out: Activity in Lung, Mean
  tissue uptake dose at 1 h: 0.38 %ID
[1]; lung, 3 MBq, no excess, read-out: Activity in Lung, Mean
  tissue uptake dose at 1 h: 0.46 %ID
[1]; muscle, 3 MBq, +100-fold excess cold Compound 8, read-out: Activity in Muscle, Mean
  tissue uptake dose at 1 h: 10.9 %ID
[1]; muscle, 3 MBq, no excess, read-out: Activity in Muscle, Mean
  tissue uptake dose at 1 h: 10.4 %ID
[1]; muscle, +10K-fold excess cold Compound 8, read-out: Activity in Muscle, Mean
  tissue uptake dose at 1 h: 8.41 %ID
[1]; skin, 3 MBq, +10K-fold excess cold Compound 8, read-out: Activity in Skin, Mean
  tissue uptake dose at 1 h: 12.7 %ID
[1]; skin, 3 MBq, +100-fold excess cold Compound 8, read-out: Activity in Skin, Mean
  tissue uptake dose at 1 h: 14 %ID
[1]; skin, 3 MBq, no excess, read-out: Activity in Skin, Mean
  tissue uptake dose at 1 h: 14.4 %ID
[1]; small and large intestine, 3 MBq, +10K-fold excess cold Compound 8, read-out: Activity in Small & Large Intestine, Mean
  tissue uptake dose at 1 h: 7.54 %ID
[1]; small and large intestine, 3 MBq, +100-fold excess cold Compound 8, read-out: Activity in Small & Large Intestine, Mean
  tissue uptake dose at 1 h: 8.42 %ID
[1]; small and large intestine, 3 MBq, no excess, read-out: Activity in Small & Large Intestine, Mean
  tissue uptake dose at 1 h: 7.86 %ID
[1]; spleen, 3 MBq, +10K-fold excess cold Compound 8, read-out: Activity in Spleen, Mean
  tissue uptake dose at 1 h: 0.27 %ID
[1]; spleen, 3 MBq, +100-fold excess cold Compound 8, read-out: Activity in Spleen, Mean
  tissue uptake dose at 1 h: 0.29 %ID
[1]; spleen, 3 MBq, no excess, read-out: Activity in Spleen, Mean
  tissue uptake dose at 1 h: 0.29 %ID
[1]; stomach, 3 MBq, +10K-fold excess cold Compound 8, read-out: Activity in Stomach, Mean
  tissue uptake dose at 1 h: 1.92 %ID
[1]; stomach, 3 MBq, +100-fold excess cold Compound 8, read-out: Activity in Stomach, Mean
  tissue uptake dose at 1 h: 1.21 %ID
[1]; stomach, 3 MBq, no excess, read-out: Activity in Stomach, Mean
  tissue uptake dose at 1 h: 0.9 %ID
[1]; thyroid, 3 MBq, +10K-fold excess cold Compound 8, read-out: Activity in Thyroid, Mean
  tissue uptake dose at 1 h: 0.04 %ID
[1]; thyroid, 3 MBq, +100-fold excess cold Compound 8, read-out: Activity in Thyroid, Mean
  tissue uptake dose at 1 h: 0.05 %ID
[1]; thyroid, 3 MBq, no excess, read-out: Activity in Thyroid, Mean
  tissue uptake dose at 1 h: 0.05 %ID
[2]
  Liver uptake in BDL rats (in words): specific uptake
